In publication PMC8266621 (2021):

Experiments:
[1] = system: 46 nt NMT1 RNA (GAAA loop), wild-type xanthine riboswitch (RNA, riboswitch) GGAGUAGAAGCGUUCAGCGGCCGAAAGGCCGCCCGGAAAUUGCUCC; test: ITC; details: K+ 50 mM, Mg2+ 10 mM, 50 mM Tris pH 8.0, 25 °C; for Kd: RNA titrated into 0.1 mM ligand; for binding: RNA (1.4 mM stock) titrated into 0.1 mM ligand, N.D.
[2] = system: original sequence (GCCC loop) of the xanthine riboswitch (RNA, riboswitch) GGAGUAGAAGCGUUCAGCGGCCGCCCGGCCGCCCGGAAAUUGCUCC; test: ITC; details: K+ 50 mM, Mg2+ 10 mM; 50 mM Tris pH 8.0, 25 °C; RNA titrated into 0.1 mM ligand
[3] = system: C11G (RNA, riboswitch) GGAGUAGAAGGGUUCAGCGGCCGAAAGGCCGCCCGGAAAUUGCUCC; test: ITC; details: K+ 50 mM, Mg2+ 10 mM; 50 mM Tris pH 8.0, 25 °C; RNA (1.4 mM stock) titrated into 0.1 mM ligand
[4] = system: G35C (RNA, riboswitch) GGAGUAGAAGCGUUCAGCGGCCGAAAGGCCGCCCCGAAAUUGCUCC; test: ITC; details: K+ 50 mM, Mg2+ 10 mM; 50 mM Tris pH 8.0, 25 °C; RNA (1.4 mM stock) titrated into 0.1 mM ligand
[5] = system: C11U-G35A (RNA, riboswitch) GGAGUAGAAGUGUUCAGCGGCCGAAAGGCCGCCCAGAAAUUGCUCC; test: ITC; details: K+ 50 mM, Mg2+ 10 mM; 50 mM Tris pH 8.0, 25 °C; RNA (1.4 mM stock) titrated into 0.1 mM ligand
[6] = system: C11G-G35C (RNA, riboswitch) GGAGUAGAAGGGUUCAGCGGCCGAAAGGCCGCCCCGAAAUUGCUCC; test: ITC; details: K+ 50 mM, Mg2+ 10 mM; 50 mM Tris pH 8.0, 25 °C; RNA (1.4 mM stock) titrated into 0.1 mM ligand
[7] = system: G12A (RNA, riboswitch) GGAGUAGAAGCAUUCAGCGGCCGAAAGGCCGCCCGGAAAUUGCUCC; test: ITC; details: K+ 50 mM, Mg2+ 10 mM; 50 mM Tris pH 8.0, 25 °C; 7-fold decrease
[8] = system: C34A (RNA, riboswitch) GGAGUAGAAGCGUUCAGCGGCCGAAAGGCCGCCAGGAAAUUGCUCC; test: ITC; details: K+ 50 mM, Mg2+ 10 mM; 50 mM Tris pH 8.0, 25 °C; comparable to wild-type
[9] = system: C34U (RNA, riboswitch) GGAGUAGAAGCGUUCAGCGGCCGAAAGGCCGCCUGGAAAUUGCUCC; test: ITC; details: K+ 50 mM, Mg2+ 10 mM; 50 mM Tris pH 8.0, 25 °C; 3- to 4-fold decrease
[10] = system: C34G (RNA, riboswitch) GGAGUAGAAGCGUUCAGCGGCCGAAAGGCCGCCGGGAAAUUGCUCC; test: ITC; details: K+ 50 mM, Mg2+ 10 mM; 50 mM Tris pH 8.0, 25 °C; 3- to 4-fold decrease
[11] = system: A16G (RNA, riboswitch) GGAGUAGAAGCGUUCGGCGGCCGAAAGGCCGCCCGGAAAUUGCUCC; test: ITC; details: K+ 50 mM, Mg2+ 10 mM; 50 mM Tris pH 8.0, 25 °C; 4-fold less affinity
[12] = system: A16G/C33U (RNA, riboswitch) GGAGUAGAAGCGUUCGGCGGCCGAAAGGCCGCUCGGAAAUUGCUCC; test: ITC; details: K+ 50 mM, Mg2+ 10 mM; 50 mM Tris pH 8.0, 25 °C; 4-fold less affinity
[13] = system: A9C (RNA, riboswitch) GGAGUAGACGCGUUCAGCGGCCGAAAGGCCGCCCGGAAAUUGCUCC; test: ITC; details: K+ 50 mM, Mg2+ 10 mM; 50 mM Tris pH 8.0, 25 °C; RNA (1.4 mM stock) titrated into 0.1 mM ligand
[14] = system: A8C (RNA, riboswitch) GGAGUAGCAGCGUUCAGCGGCCGAAAGGCCGCCCGGAAAUUGCUCC; test: ITC; details: K+ 50 mM, Mg2+ 10 mM; 50 mM Tris pH 8.0, 25 °C; RNA (1.4 mM stock) titrated into 0.1 mM ligand
[15] = system: A8U (RNA, riboswitch) GGAGUAGUAGCGUUCAGCGGCCGAAAGGCCGCCCGGAAAUUGCUCC; test: ITC; details: K+ 50 mM, Mg2+ 10 mM; 50 mM Tris pH 8.0, 25 °C; RNA (1.4 mM stock) titrated into 0.1 mM ligand
[16] = system: G7A-A8G (RNA, riboswitch) GGAGUAAGAGCGUUCAGCGGCCGAAAGGCCGCCCGGAAAUUGCUCC; test: ITC; details: K+ 50 mM, Mg2+ 10 mM; 50 mM Tris pH 8.0, 25 °C; RNA (1.4 mM stock) titrated into 0.1 mM ligand
[17] = system: G10A (RNA, riboswitch) GGAGUAGAAACGUUCAGCGGCCGAAAGGCCGCCCGGAAAUUGCUCC; test: ITC; details: K+ 50 mM, Mg2+ 10 mM; 50 mM Tris pH 8.0, 25 °C; RNA (1.4 mM stock) titrated into 0.1 mM ligand
[18] = system: G10C (RNA, riboswitch) GGAGUAGAACCGUUCAGCGGCCGAAAGGCCGCCCGGAAAUUGCUCC; test: ITC; details: K+ 50 mM, Mg2+ 10 mM; 50 mM Tris pH 8.0, 25 °C; RNA (1.4 mM stock) titrated into 0.1 mM ligand
[19] = system: U40A (RNA, riboswitch) GGAGUAGAAGCGUUCAGCGGCCGAAAGGCCGCCCGGAAAAUGCUCC; test: ITC; details: K+ 50 mM, Mg2+ 10 mM; 50 mM Tris pH 8.0, 25 °C; RNA (1.4 mM stock) titrated into 0.1 mM ligand
[20] = system: U40C (RNA, riboswitch) GGAGUAGAAGCGUUCAGCGGCCGAAAGGCCGCCCGGAAACUGCUCC; test: ITC; details: K+ 50 mM, Mg2+ 10 mM; 50 mM Tris pH 8.0, 25 °C; RNA (1.4 mM stock) titrated into 0.1 mM ligand
[21] = system: G10C-U40A (RNA, riboswitch) GGAGUAGAACCGUUCAGCGGCCGAAAGGCCGCCCGGAAAAUGCUCC; test: ITC; details: K+ 50 mM, Mg2+ 10 mM; 50 mM Tris pH 8.0, 25 °C; RNA (1.4 mM stock) titrated into 0.1 mM ligand
[22] = system: A8Ap (RNA, riboswitch, 2-aminopurine at 8) GGAGUAGAAGCGUUCAGCGGAAACGCCCGGAAAUUGCUCC; test: 2-aminopurine fluorescence; details: K+ 100 mM, Mg2+ 20 mM; 100 mM Tris-HCl pH 8.4, 20 °C; 0.5 μM RNA, 3 mM xanthine; qualitative
[23] = system: G7Ap (RNA, riboswitch, 2-aminopurine at 7) GGAGUAGAAGCGUUCAGCGGAAACGCCCGGAAAUUGCUCC; test: 2-aminopurine fluorescence; details: K+ 100 mM, Mg2+ 20 mM; 100 mM Tris-HCl pH 8.4, 20 °C; 0.5 μM RNA, 3 mM xanthine; qualitative
[24] = system: G12Ap (RNA, riboswitch, 2-aminopurine at 12) GGAGUAGAAGCGUUCAGCGGAAACGCCCGGAAAUUGCUCC; test: 2-aminopurine fluorescence; details: K+ 100 mM, Mg2+ 20 mM; 100 mM Tris-HCl pH 8.4, 20 °C; 0.5 μM RNA, 3 mM xanthine; qualitative
[25] = system: A6Ap (RNA, riboswitch, 2-aminopurine at 6) GGAGUAGAAGCGUUCAGCGGAAACGCCCGGAAAUUGCUCC; test: 2-aminopurine fluorescence; details: K+ 100 mM, Mg2+ 20 mM; 100 mM Tris-HCl pH 8.4, 20 °C; 0.5 μM RNA, 3 mM xanthine; qualitative

O=c1[nH]c(=O)c2[nH]c(=O)[nH]c2[nH]1
Kd [1]: 20.4 ± 1.7 µM

O=c1[nH]cnc2nc[nH]c12
binding [1]: no

Nc1ncnc2[nH]cnc12
binding [1]: no

O=c1[nH]cnc2c1ncn2[C@@H]1O[C@H](CO)[C@@H](O)[C@H]1O
binding [1]: no

O=c1[nH]c(=O)c2[nH]cnc2[nH]1
Kd [1]: 4.4 ± 0.2 µM
Kd [2]: 3.6 ± 0.3 µM
binding [3]: no
binding [4]: no
binding [5]: no
binding [6]: no
binding [7]: yes
binding [8]: yes
binding [9]: yes
binding [10]: yes
binding [11]: yes
binding [12]: yes
binding [13]: no
binding [14]: no
binding [15]: no
binding [16]: no
binding [17]: no
binding [18]: no
binding [19]: no
binding [20]: no
binding [21]: no
binding [22]: yes
binding [23]: yes
binding [24]: yes
binding [25]: yes

O=c1[nH]c(=O)c2[nH]nnc2[nH]1
Kd [1]: 3.0 ± 0.1 µM

Nc1ncnc2c1ncn2[C@@H]1O[C@H](CO)[C@@H](O)[C@H]1O
binding [1]: no
